Experimental data taken from ChEMBL document CHEMBL3734723, “Synthesis and anticancer activity of 6-heteroarylcoumarins” (2015).

Legend:
Assay type in all cases: functional
[1] = system: ACHN; test: Growth inhibition of human ACHN cells incubated for 48 hrs by sulforhodamine B assay; details: for CC50: read-out: LC50 (the source's name)
[2] = system: U-251; test: Cytotoxicity against human U251 cells assessed as cell growth at 10 uM incubated for 48 hrs by sulforhodamine B assay; details: U-251, 48 h, read-out: Activity
[3] = Cytotoxicity against human NCI-ADR-RES cells assessed as cell growth at 10 uM incubated for 48 hrs by sulforhodamine B assay; details: read-out: Activity
[4] = system: Malme-3M; test: Growth inhibition of human MALME-3M cells incubated for 48 hrs by sulforhodamine B assay; details: for CC50: read-out: LC50 (the source's name)
[5] = system: U-251; test: Growth inhibition of human U251 cells incubated for 48 hrs by sulforhodamine B assay; details: U-251, 48 h; for CC50: read-out: LC50 (the source's name)
[6] = system: M14; test: Cytotoxicity against human M14 cells assessed as cell growth at 10 uM incubated for 48 hrs by sulforhodamine B assay; details: M14, 48 h, read-out: Activity
[7] = Cytotoxicity against human MOLT4 cells assessed as cell growth at 10 uM incubated for 48 hrs by sulforhodamine B assay; details: MOLT-4, 48 h, read-out: Activity
[8] = system: MCF7; test: Growth inhibition of human MCF7 cells incubated for 48 hrs by sulforhodamine B assay; details: MCF7, 48 h; for CC50: read-out: LC50 (the source's name)
[9] = Cytotoxicity against human Hs578T cells assessed as cell growth at 10 uM incubated for 48 hrs by sulforhodamine B assay; details: Hs-578T, read-out: Activity
[10] = system: A549; test: Cytotoxicity against human A549 cells assessed as cell growth at 10 uM incubated for 48 hrs by sulforhodamine B assay; details: A549, 48 h, read-out: Activity
[11] = system: A498; test: Cytotoxicity against human A498 cells assessed as cell growth at 10 uM incubated for 48 hrs by sulforhodamine B assay; details: A498, 48 h, read-out: Activity
[12] = Cytotoxicity against human SF539 cells assessed as cell growth at 10 uM incubated for 48 hrs by sulforhodamine B assay; details: SF-539, 48 h, read-out: Activity
[13] = Growth inhibition of human CNS cancer cells after 48 hrs by sulforhodamine B assay; details: Cancer cell lines; for CC50: read-out: LC50 (the source's name)
[14] = Growth inhibition of human HCT15 cells incubated for 48 hrs by sulforhodamine B assay; details: HCT-15, 48 h; for CC50: read-out: LC50 (the source's name)
[15] = Growth inhibition of human melanoma cells after 48 hrs by sulforhodamine B assay; details: Melanoma cell; for CC50: read-out: LC50 (the source's name)
[16] = system: MDA-MB-231; test: Cytotoxicity against human MDA-MB-231 cells assessed as cell growth at 10 uM incubated for 48 hrs by sulforhodamine B assay; details: MDA-MB-231, 48 h, read-out: Activity
[17] = system: NCI-H23; test: Cytotoxicity against human NCI-H23 cells assessed as cell growth at 10 uM incubated for 48 hrs by sulforhodamine B assay; details: NCI-H23, 48 h, read-out: Activity
[18] = Growth inhibition of human OVCAR5 cells incubated for 48 hrs by sulforhodamine B assay; details: OVCAR-5, 48 h; for CC50: read-out: LC50 (the source's name)
[19] = Growth inhibition of human IGROV1 cells incubated for 48 hrs by sulforhodamine B assay; details: IGROV-1, 48 h; for CC50: read-out: LC50 (the source's name)
[20] = system: NCI-H522; test: Cytotoxicity against human NCI-H522 cells assessed as cell growth at 10 uM incubated for 48 hrs by sulforhodamine B assay; details: NCI-H522, 48 h, read-out: Activity
[21] = Growth inhibition of human COLO205 cells incubated for 48 hrs by sulforhodamine B assay; details: COLO 205, 48 h; for CC50: read-out: LC50 (the source's name)
[22] = Growth inhibition of human breast cancer cells after 48 hrs by sulforhodamine B assay; details: Cancer cell lines; for CC50: read-out: LC50 (the source's name)
[23] = Cytotoxicity against human TK10 cells assessed as cell growth at 10 uM incubated for 48 hrs by sulforhodamine B assay; details: TK-10, 48 h, read-out: Activity
[24] = Growth inhibition of human UO31 cells incubated for 48 hrs by sulforhodamine B assay; details: UO-31, 48 h; for CC50: read-out: LC50 (the source's name)
[25] = Growth inhibition of human HCC2998 cells incubated for 48 hrs by sulforhodamine B assay; details: HCC 2998, 48 h; for CC50: read-out: LC50 (the source's name)
[26] = system: 786-0; test: Cytotoxicity against human 786-0 cells assessed as cell growth at 10 uM incubated for 48 hrs by sulforhodamine B assay; details: 786-0, 48 h, read-out: Activity
[27] = system: NCI-H226; test: Growth inhibition of human NCI-H226 cells incubated for 48 hrs by sulforhodamine B assay; details: NCI-H226, 48 h; for CC50: read-out: LC50 (the source's name)
[28] = Growth inhibition of human UACC257 cells incubated for 48 hrs by sulforhodamine B assay; details: UACC-257, 48 h; for CC50: read-out: LC50 (the source's name)
[29] = system: SN12C; test: Cytotoxicity against human SN12C cells assessed as cell growth at 10 uM incubated for 48 hrs by sulforhodamine B assay; details: read-out: Activity
[30] = system: SK-MEL-5; test: Growth inhibition of human SK-MEL-5 cells incubated for 48 hrs by sulforhodamine B assay; details: SK-MEL-5, 48 h; for CC50: read-out: LC50 (the source's name)
[31] = Growth inhibition of human SF539 cells incubated for 48 hrs by sulforhodamine B assay; details: SF-539, 48 h; for CC50: read-out: LC50 (the source's name)
[32] = system: KM12; test: Growth inhibition of human KM12 cells incubated for 48 hrs by sulforhodamine B assay; details: KM12, 48 h; for CC50: read-out: LC50 (the source's name)
[33] = Growth inhibition of human colon cancer cells after 48 hrs by sulforhodamine B assay; details: Cancer cell lines; for CC50: read-out: LC50 (the source's name)
[34] = system: SK-MEL-5; test: Cytotoxicity against human SK-MEL-5 cells assessed as cell growth at 10 uM incubated for 48 hrs by sulforhodamine B assay; details: SK-MEL-5, 48 h, read-out: Activity
[35] = Growth inhibition of human BT549 cells incubated for 48 hrs by sulforhodamine B assay; details: BT-549, 48 h; for CC50: read-out: LC50 (the source's name)
[36] = system: A498; test: Growth inhibition of human A498 cells incubated for 48 hrs by sulforhodamine B assay; details: A498, 48 h; for CC50: read-out: LC50 (the source's name)

Cc1cc(=O)oc2c(C)c(O)c(-c3ccnc(N)n3)cc12
GI50 [1]: 2.39 µM
TGI [1]: > 100 µM
CC50 [1]: > 100 µM
growth at 10 µM [2]: 56.3%
growth at 10 µM [3]: 57.1%
GI50 [4]: > 100 µM
TGI [4]: > 100 µM
CC50 [4]: > 100 µM
GI50 [5]: 8.59 µM
TGI [5]: > 100 µM
CC50 [5]: > 100 µM
growth at 10 µM [6]: 68.6%
growth at 10 µM [7]: -44.7%
GI50 [8]: 2.61 µM
TGI [8]: > 100 µM
CC50 [8]: > 100 µM
growth at 10 µM [9]: 51%
growth at 10 µM [10]: 39.5%
growth at 10 µM [11]: 42.9%
growth at 10 µM [12]: 60.7%
GI50 [13]: 13.1 µM
TGI [13]: > 100 µM
CC50 [13]: > 100 µM
GI50 [14]: 8.45 µM
TGI [14]: > 100 µM
CC50 [14]: > 100 µM
GI50 [15]: 68.1 µM
TGI [15]: > 100 µM
CC50 [15]: > 100 µM
growth at 10 µM [16]: 69%
growth at 10 µM [17]: 68.3%
GI50 [18]: > 100 µM
TGI [18]: > 100 µM
CC50 [18]: > 100 µM
GI50 [19]: 15.8 µM
TGI [19]: > 100 µM
CC50 [19]: > 100 µM
growth at 10 µM [20]: 47%
GI50 [21]: 6.85 µM
TGI [21]: > 100 µM
CC50 [21]: > 100 µM
GI50 [22]: 32 µM
TGI [22]: > 100 µM
CC50 [22]: > 100 µM
growth at 10 µM [23]: 61.9%
GI50 [24]: 2.59 µM
TGI [24]: > 100 µM
CC50 [24]: > 100 µM
GI50 [25]: > 100 µM
TGI [25]: > 100 µM
CC50 [25]: > 100 µM
growth at 10 µM [26]: 62.1%
GI50 [27]: 9.84 µM
TGI [27]: > 100 µM
CC50 [27]: > 100 µM
GI50 [28]: > 100 µM
TGI [28]: > 100 µM
CC50 [28]: > 100 µM
growth at 10 µM [29]: 50.8%
GI50 [30]: 3.56 µM
TGI [30]: > 100 µM
CC50 [30]: > 100 µM
GI50 [31]: 8.33 µM
TGI [31]: > 100 µM
CC50 [31]: > 100 µM
GI50 [32]: > 100 µM
TGI [32]: > 100 µM
CC50 [32]: > 100 µM
GI50 [33]: 32.7 µM
TGI [33]: > 100 µM
CC50 [33]: > 100 µM
growth at 10 µM [34]: 38.5%
GI50 [35]: 47.8 µM
TGI [35]: > 100 µM
CC50 [35]: > 100 µM
GI50 [36]: 1.44 µM
TGI [36]: > 100 µM
CC50 [36]: > 100 µM

Cc1cc(=O)oc2c(C)c(O)c(-c3cc4ccc(F)cc4[nH]3)cc12
GI50 [1]: 2.64 µM
TGI [1]: 10.6 µM
CC50 [1]: 74.7 µM
growth at 10 µM [2]: 27.9%
growth at 10 µM [3]: 20.7%
GI50 [4]: 1.95 µM
TGI [4]: 7.32 µM
CC50 [4]: 50.2 µM
GI50 [5]: 3.05 µM
TGI [5]: 13.2 µM
CC50 [5]: 43.4 µM
growth at 10 µM [6]: 52.3%
growth at 10 µM [7]: 36.5%
GI50 [8]: 2.57 µM
TGI [8]: 16.2 µM
CC50 [8]: > 100 µM
growth at 10 µM [9]: 42.1%
growth at 10 µM [10]: 39.3%
growth at 10 µM [11]: 52.5%
growth at 10 µM [12]: 47.3%
GI50 [13]: 3.89 µM
TGI [13]: 17.5 µM
CC50 [13]: 72.9 µM
GI50 [14]: 3.09 µM
TGI [14]: 13.6 µM
CC50 [14]: 63.1 µM
GI50 [15]: 2.64 µM
TGI [15]: 9.71 µM
CC50 [15]: 30.8 µM
growth at 10 µM [16]: 59.3%
growth at 10 µM [17]: 10.2%
GI50 [18]: 3.34 µM
TGI [18]: 16.7 µM
CC50 [18]: 49.7 µM
GI50 [19]: 2.3 µM
TGI [19]: 13.7 µM
CC50 [19]: 62.8 µM
growth at 10 µM [20]: 15%
GI50 [21]: 11.7 µM
TGI [21]: 25.6 µM
CC50 [21]: 56 µM
GI50 [22]: 2.67 µM
TGI [22]: 14.2 µM
CC50 [22]: 89.3 µM
growth at 10 µM [23]: 59.9%
GI50 [24]: 1.71 µM
TGI [24]: 6.21 µM
CC50 [24]: 25.5 µM
GI50 [25]: 3.49 µM
TGI [25]: 13.5 µM
CC50 [25]: 39.9 µM
growth at 10 µM [26]: 42.2%
GI50 [27]: 3.34 µM
TGI [27]: 22.1 µM
CC50 [27]: > 100 µM
GI50 [28]: 1.82 µM
TGI [28]: 3.78 µM
CC50 [28]: 7.87 µM
growth at 10 µM [29]: 35.1%
GI50 [30]: 1.65 µM
TGI [30]: 4.46 µM
CC50 [30]: 14.5 µM
GI50 [31]: 2.94 µM
TGI [31]: 14.1 µM
CC50 [31]: 59.4 µM
GI50 [32]: 3.03 µM
TGI [32]: 12.4 µM
CC50 [32]: 42 µM
GI50 [33]: 5.38 µM
TGI [33]: 16.2 µM
CC50 [33]: 48.1 µM
growth at 10 µM [34]: 8.97%
GI50 [35]: 3.57 µM
TGI [35]: 13.6 µM
CC50 [35]: 65.9 µM
GI50 [36]: 1.93 µM
TGI [36]: 6.21 µM
CC50 [36]: 25.8 µM
